In this experiment the test system is MV-4-11 cells. Nature of the experiment: Gene expression microarray analysis (Affymetrix PrimeView) and GSEA. Format: cell-based, human. The arrangement: RFU PODN (11730768_x_at) / Fold change /veh PODN (11730768_x_at) / RFU LINC00158 (11744669_a_at) / Fold change /veh LINC00158 (11744669_a_at) / RFU DUSP10 (11751237_a_at) / Fold change /veh DUSP10 (11751237_a_at) / RFU ID3 (11757404_x_at) / Fold change /veh ID3 (11757404_x_at) / RFU PLEKHG5 (11737974_s_at) / Fold change /veh PLEKHG5 (11737974_s_at) / RFU LRRC4B (11730491_at) / Fold change /veh LRRC4B (11730491_at) / RFU GIMAP4 (11747438_a_at) / Fold change /veh GIMAP4 (11747438_a_at) / RFU KRT8 (11758183_x_at) / Fold change /veh KRT8 (11758183_x_at) / RFU CNN1 (11734310_a_at) / Fold change /veh CNN1 (11734310_a_at) / RFU VPS37D (11726825_at) / Fold change /veh VPS37D (11726825_at) / RFU C10orf10 (11716522_x_at) / Fold change /veh C10orf10 (11716522_x_at) / RFU KIR2DL2 /// KIR2DL4 /// KIR2DL5A /// KIR2DL5B /// KIR2DS1 /// KIR2DS2 /// KIR2DS3 /// KIR2DS4 /// KIR3DL3 /// KIR3DL3 /// KIR3DS1 (11738374_at) / Fold change /veh KIR2DL2 /// KIR2DL4 /// KIR2DL5A /// KIR2DL5B /// KIR2DS1 /// KIR2DS2 /// KIR2DS3 /// KIR2DS4 /// KIR3DL3 /// KIR3DL3 /// KIR3DS1 (11738374_at) / RFU C1QL1 (11718748_at) / Fold change /veh C1QL1 (11718748_at) / RFU TMPRSS4 (11747572_a_at) / Fold change /veh TMPRSS4 (11747572_a_at) / RFU HAMP (11756126_x_at) / Fold change /veh HAMP (11756126_x_at) / RFU RNFT2 (11725882_a_at) / Fold change /veh RNFT2 (11725882_a_at) / RFU NR4A2 (11747474_a_at) / Fold change /veh NR4A2 (11747474_a_at) / RFU ABCC12 (11746883_a_at) / Fold change /veh ABCC12 (11746883_a_at) / RFU TMEM136 (11760407_x_at) / Fold change /veh TMEM136 (11760407_x_at) / RFU CLDN22 /// WWC2 (11732394_at) / Fold change /veh CLDN22 /// WWC2 (11732394_at) / RFU HLA-DPB1 (11760878_x_at) / Fold change /veh HLA-DPB1 (11760878_x_at) / RFU SPINT1 (11716480_a_at) / Fold change /veh SPINT1 (11716480_a_at) / RFU GAP43 (11754022_s_at) / Fold change /veh GAP43 (11754022_s_at) / RFU A4GNT (11735810_at) / Fold change /veh A4GNT (11735810_at) / RFU PRB3 (11715151_x_at) / Fold change /veh PRB3 (11715151_x_at) / RFU TUBB4B (11761932_at) / Fold change /veh TUBB4B (11761932_at) / RFU CAPN14 (11732068_a_at) / Fold change /veh CAPN14 (11732068_a_at) / RFU TMCC2 (11721928_a_at) / Fold change /veh TMCC2 (11721928_a_at) / RFU IRGQ (11745062_a_at) / Fold change /veh IRGQ (11745062_a_at) / RFU FAM174B (11720279_a_at) / Fold change /veh FAM174B (11720279_a_at) / RFU TMPRSS4 (11748680_a_at) / Fold change /veh TMPRSS4 (11748680_a_at) / RFU FAM212B (11763350_a_at) / Fold change /veh FAM212B (11763350_a_at) / RFU PLEKHG5 (11743358_a_at) / Fold change /veh PLEKHG5 (11743358_a_at) / RFU ZSCAN30 (11745921_a_at) / Fold change /veh ZSCAN30 (11745921_a_at) / RFU CMKLR1 (11741424_a_at) / Fold change /veh CMKLR1 (11741424_a_at) / RFU LOC101060620 /// MAPK8IP1 (11723275_at) / Fold change /veh LOC101060620 /// MAPK8IP1 (11723275_at) / RFU SPTSSB (11747773_x_at) / Fold change /veh SPTSSB (11747773_x_at) / RFU PRSS12 (11739890_at) / Fold change /veh PRSS12 (11739890_at) / RFU BIN1 (11741810_x_at) / Fold change /veh BIN1 (11741810_x_at) / RFU WNT11 (11732464_a_at) / Fold change /veh WNT11 (11732464_a_at) / RFU C10orf10 (11716521_a_at) / Fold change /veh C10orf10 (11716521_a_at) / RFU C5orf56 (11738089_at) / Fold change /veh C5orf56 (11738089_at) / RFU CYB561 (11721691_x_at) / Fold change /veh CYB561 (11721691_x_at) / RFU ANKRD19P (11752326_a_at) / Fold change /veh ANKRD19P (11752326_a_at) / RFU OR2T12 /// OR2T33 /// OR2T8 (11738714_s_at) / Fold change /veh OR2T12 /// OR2T33 /// OR2T8 (11738714_s_at) / RFU VCAN (11748164_a_at) / Fold change /veh VCAN (11748164_a_at) / RFU JSRP1 (11732532_at) / Fold change /veh JSRP1 (11732532_at) / RFU KRTAP10-11 (11738290_x_at) / Fold change /veh KRTAP10-11 (11738290_x_at) / RFU MYO3A (11730013_a_at) / Fold change /veh MYO3A (11730013_a_at) / RFU EBF3 (11725865_a_at) / Fold change /veh EBF3 (11725865_a_at) / RFU CAMK2N1 (11719241_x_at) / Fold change /veh CAMK2N1 (11719241_x_at) / RFU C5orf56 (11738088_a_at) / Fold change /veh C5orf56 (11738088_a_at) / RFU OLFML3 (11715873_a_at) / Fold change /veh OLFML3 (11715873_a_at) / RFU LOC100653217 /// NTM (11731650_a_at) / Fold change /veh LOC100653217 /// NTM (11731650_a_at) / RFU MAPK11 (11762145_a_at) / Fold change /veh MAPK11 (11762145_a_at) / RFU FIZ1 (11724087_x_at) / Fold change /veh FIZ1 (11724087_x_at) / RFU OASL (11726364_x_at) / Fold change /veh OASL (11726364_x_at) / RFU SOX15 (11748057_x_at) / Fold change /veh SOX15 (11748057_x_at) / RFU CD79A (11719716_a_at) / Fold change /veh CD79A (11719716_a_at) / RFU HIST1H1D (11736915_at) / Fold change /veh HIST1H1D (11736915_at) / RFU CASKIN2 (11723855_a_at) / Fold change /veh CASKIN2 (11723855_a_at) / RFU LOC730098 (11760151_x_at) / Fold change /veh LOC730098 (11760151_x_at) / RFU OR4N2 (11742367_at) / Fold change /veh OR4N2 (11742367_at) / RFU PRRT2 (11749266_a_at) / Fold change /veh PRRT2 (11749266_a_at) / RFU SNX32 (11753110_a_at) / Fold change /veh SNX32 (11753110_a_at) / RFU CDHR5 (11726645_a_at) / Fold change /veh CDHR5 (11726645_a_at) / RFU RCAN1 (11760418_a_at) / Fold change /veh RCAN1 (11760418_a_at) / RFU FAM167A (11723789_a_at) / Fold change /veh FAM167A (11723789_a_at) / RFU FAM26E (11764081_at) / Fold change /veh FAM26E (11764081_at) / RFU ISYNA1 (11749810_s_at) / Fold change /veh ISYNA1 (11749810_s_at) / RFU ACY1 (11761880_at) / Fold change /veh ACY1 (11761880_at) / RFU 11764098_at / Fold change /veh 11764098_at / RFU SAMD14 (11745864_x_at) / Fold change /veh SAMD14 (11745864_x_at) / RFU NPB (11741838_a_at) / Fold change /veh NPB (11741838_a_at) / RFU TMPRSS6 (11731388_a_at) / Fold change /veh TMPRSS6 (11731388_a_at) / RFU KRTAP10-2 (11738614_at) / Fold change /veh KRTAP10-2 (11738614_at) / RFU ARHGAP8 /// PRR5-ARHGAP8 (11727945_x_at) / Fold change /veh ARHGAP8 /// PRR5-ARHGAP8 (11727945_x_at) / RFU KRTAP5-7 /// NADSYN1 (11734609_at) / Fold change /veh KRTAP5-7 /// NADSYN1 (11734609_at) / RFU RASL12 (11751679_a_at) / Fold change /veh RASL12 (11751679_a_at) / RFU CDKN2B (11736163_a_at) / Fold change /veh CDKN2B (11736163_a_at) / RFU PRF1 (11729649_at) / Fold change /veh PRF1 (11729649_at) / RFU, ZNF638 /// ZNF638-IT1 / Fold change vs veh, ZNF638 /// ZNF638-IT1 / RFU, PANK3 / Fold change vs veh, PANK3 / RFU, SH3YL1 / Fold change vs veh, SH3YL1 / RFU, ZEB2 / Fold change vs veh, ZEB2 / RFU, NRIP1 / Fold change vs veh, NRIP1 / RFU, PTTG1IP / Fold change vs veh, PTTG1IP / RFU, CAPN2 / Fold change vs veh, CAPN2 / RFU, MED14 / Fold change vs veh, MED14 / RFU, SNORA58 / Fold change vs veh, SNORA58 / RFU, C1orf63 / Fold change vs veh, C1orf63 / RFU, LRRFIP1 / Fold change vs veh, LRRFIP1 / RFU, NDUFAF7 / Fold change vs veh, NDUFAF7 / RFU, SLC12A2 / Fold change vs veh, SLC12A2 / RFU, IBTK / Fold change vs veh, IBTK / RFU, ESF1 / Fold change vs veh, ESF1 / Fold change vs veh, TMEM50B / RFU, TAOK1 / Fold change vs veh, TAOK1 / RFU, ACBD3 / Fold change vs veh, ACBD3 / RFU, TMA16 / Fold change vs veh, TMA16 / RFU, RWDD3 / Fold change vs veh, RWDD3 / RFU, BCAT1 / Fold change vs veh, BCAT1 / RFU, EDEM3 / Fold change vs veh, EDEM3 / RFU, TMEM33 / Fold change vs veh, TMEM33 / RFU, WDR75 / Fold change vs veh, WDR75 / RFU, AHCTF1 / Fold change vs veh, AHCTF1 / RFU, TFRC / Fold change vs veh, TFRC / RFU, ZDHHC17 / Fold change vs veh, ZDHHC17 / RFU, NOM1 / Fold change vs veh, NOM1 / RFU, ARL8B / Fold change vs veh, ARL8B / RFU, ZBTB11 / Fold change vs veh, ZBTB11 / RFU, TAMM41 / Fold change vs veh, TAMM41 / RFU, KIAA1704 /// LOC100996395 / Fold change vs veh, KIAA1704 /// LOC100996395 / RFU, ING1 / Fold change vs veh, ING1 / RFU, TRMT61B / Fold change vs veh, TRMT61B / RFU, FUBP3 / Fold change vs veh, FUBP3 / RFU, TP53 / Fold change vs veh, TP53 / RFU, TNKS2 / Fold change vs veh, TNKS2 / RFU, ZFP14 / Fold change vs veh, ZFP14 / RFU, ACTR2 / Fold change vs veh, ACTR2 / RFU, PPP3R1 / Fold change vs veh, PPP3R1 / RFU, PIK3R1 / Fold change vs veh, PIK3R1 / RFU, HNRNPA1 / Fold change vs veh, HNRNPA1 / RFU, RNF170 / Fold change vs veh, RNF170 / RFU, ZNF28 / Fold change vs veh, ZNF28 / RFU, RNGTT / Fold change vs veh, RNGTT / RFU, OGT / Fold change vs veh, OGT / RFU, BRD1 / Fold change vs veh, BRD1 / RFU, MARS / Fold change vs veh, MARS / RFU, ZNF655 / Fold change vs veh, ZNF655 / RFU, FAHD1 / Fold change vs veh, FAHD1 / RFU, BDP1 / Fold change vs veh, BDP1 / RFU, LRRCC1 / Fold change vs veh, LRRCC1 / RFU, ARID1A / Fold change vs veh, ARID1A / RFU, ZNF146 / Fold change vs veh, ZNF146 / RFU, ZNF330 / Fold change vs veh, ZNF330 / RFU, GPN3 / Fold change vs veh, GPN3 / RFU, C9orf123 / Fold change vs veh, C9orf123 / RFU, N4BP2L2 / Fold change vs veh, N4BP2L2 / RFU, ARFIP1 / Fold change vs veh, ARFIP1 / RFU, FAM179B / Fold change vs veh, FAM179B / RFU, BCL10 / Fold change vs veh, BCL10 / RFU, UHRF1BP1L / Fold change vs veh, UHRF1BP1L / RFU, BET1 / Fold change vs veh, BET1 / RFU, CNOT2 / Fold change vs veh, CNOT2 / RFU, ZNF268 / Fold change vs veh, ZNF268 / Fold change vs veh, ZNF507 / RFU, DGCR2 / Fold change vs veh, DGCR2 / RFU, WDSUB1 / Fold change vs veh, WDSUB1 / Fold change vs veh, HSP90B1 /// MIR3652 / RFU, ADSS / Fold change vs veh, ADSS / RFU, GK / Fold change vs veh, GK / RFU, ZNF148 / Fold change vs veh, ZNF148 / RFU, TAF9 / Fold change vs veh, TAF9 / RFU, SLC1A5 / Fold change vs veh, SLC1A5 / RFU, SLMO2 / Fold change vs veh, SLMO2 / RFU, ABCC4 / Fold change vs veh, ABCC4 / RFU, LOC101060439 /// RAP1B / Fold change vs veh, LOC101060439 /// RAP1B / RFU, RFX7 / Fold change vs veh, RFX7 / RFU, GTPBP10 / Fold change vs veh, GTPBP10 / RFU, CNEP1R1 / Fold change vs veh, CNEP1R1 / RFU, BIVM-ERCC5 /// ERCC5 / Fold change vs veh, BIVM-ERCC5 /// ERCC5 / RFU, ILF3 / Fold change vs veh, ILF3 / RFU 11762660_at / Fold change /veh 11762660_at / RFU VCAN (11757783_s_at) / Fold change /veh VCAN (11757783_s_at) / RFU DDX43 (11728927_at) / Fold change /veh DDX43 (11728927_at) / RFU KRT8 (11758188_x_at) / Fold change /veh KRT8 (11758188_x_at) / RFU NKD1 (11759106_at) / Fold change /veh NKD1 (11759106_at) / RFU SRD5A1 (11742802_a_at) / Fold change /veh SRD5A1 (11742802_a_at) / RFU TPSAB1 /// TPSB2 (11721975_s_at) / Fold change /veh TPSAB1 /// TPSB2 (11721975_s_at) / RFU GSTM3 (11746129_a_at) / Fold change /veh GSTM3 (11746129_a_at) / RFU IL23R (11737362_x_at) / Fold change /veh IL23R (11737362_x_at) / RFU TMEM51 (11727254_a_at) / Fold change /veh TMEM51 (11727254_a_at) / RFU PIWIL2 (11732686_x_at) / Fold change /veh PIWIL2 (11732686_x_at) / RFU ORM1 (11744905_x_at) / Fold change /veh ORM1 (11744905_x_at) / RFU CCDC152 (11743942_at) / Fold change /veh CCDC152 (11743942_at) / RFU ECM1 (11717891_a_at) / Fold change /veh ECM1 (11717891_a_at) / RFU IL23R (11748794_a_at) / Fold change /veh IL23R (11748794_a_at) / RFU TNFAIP8L3 (11732012_x_at) / Fold change /veh TNFAIP8L3 (11732012_x_at) / RFU MBOAT4 (11741988_at) / Fold change /veh MBOAT4 (11741988_at) / RFU 11764193_at / Fold change /veh 11764193_at / RFU TMEM53 (11763286_at) / Fold change /veh TMEM53 (11763286_at) / RFU MAGEB2 (11727129_at) / Fold change /veh MAGEB2 (11727129_at) / RFU TMEM200A (11744735_a_at) / Fold change /veh TMEM200A (11744735_a_at) / RFU CCDC152 (11751479_a_at) / Fold change /veh CCDC152 (11751479_a_at) / RFU FAM211A (11726209_a_at) / Fold change /veh FAM211A (11726209_a_at) / RFU RGS16 (11746705_a_at) / Fold change /veh RGS16 (11746705_a_at) / RFU VCAN (11755009_s_at) / Fold change /veh VCAN (11755009_s_at) / RFU RHOB (11743442_s_at) / Fold change /veh RHOB (11743442_s_at) / RFU RGS16 (11720943_a_at) / Fold change /veh RGS16 (11720943_a_at) / RFU RGS16 (11720944_at) / Fold change /veh RGS16 (11720944_at) / RFU, VPS4B / Fold change vs veh, VPS4B / RFU, CREB1 / Fold change vs veh, CREB1 / RFU, DNAJC13 / Fold change vs veh, DNAJC13 / RFU, GNAQ / Fold change vs veh, GNAQ / RFU, CDK5R1 / Fold change vs veh, CDK5R1 / RFU, ZRANB3 / Fold change vs veh, ZRANB3 / RFU, CUL4A / Fold change vs veh, CUL4A / RFU, CCNY / Fold change vs veh, CCNY / RFU, UFL1 / Fold change vs veh, UFL1 / RFU, COG3 / Fold change vs veh, COG3 / RFU, DIAPH2 / Fold change vs veh, DIAPH2 / RFU, SKA2 / Fold change vs veh, SKA2 / RFU, AFF3 / Fold change vs veh, AFF3 / RFU, LMF1 / Fold change vs veh, LMF1 / RFU, IPO11 / Fold change vs veh, IPO11 / RFU, DFFB / Fold change vs veh, DFFB / RFU, FOXP1 / Fold change vs veh, FOXP1 / RFU, CARD8 / Fold change vs veh, CARD8 / RFU, STRN3 / Fold change vs veh, STRN3 / RFU, ADK / Fold change vs veh, ADK / RFU, RASSF2 / Fold change vs veh, RASSF2 / RFU, WIPF1 / Fold change vs veh, WIPF1 / RFU, LARP1B / Fold change vs veh, LARP1B / RFU, RASA1 / Fold change vs veh, RASA1 / RFU, RB1 / Fold change vs veh, RB1 / RFU, PPFIA1 / Fold change vs veh, PPFIA1 / RFU, MAT2A / Fold change vs veh, MAT2A / RFU, CCT5 / Fold change vs veh, CCT5 / RFU, WDR92 / Fold change vs veh, WDR92 / RFU, CUX1 / Fold change vs veh, CUX1 / RFU, TTC7A / Fold change vs veh, TTC7A / RFU, TMEM135 / Fold change vs veh, TMEM135 / RFU, DEPTOR / Fold change vs veh, DEPTOR / RFU, CPM / Fold change vs veh, CPM / RFU, DNAJB6 / Fold change vs veh, DNAJB6 / RFU, CACNA2D3 / Fold change vs veh, CACNA2D3 / RFU, DTX4 / Fold change vs veh, DTX4 / RFU, TFCP2 / Fold change vs veh, TFCP2 / RFU, GMCL1 /// GMCL1P1 / Fold change vs veh, GMCL1 /// GMCL1P1 / RFU, AEBP2 / Fold change vs veh, AEBP2 / RFU, SNHG1 /// SNORD22 /// SNORD25 /// SNORD26 /// SNORD27 /// SNORD28 /// SNORD29 /// SNORD31 / Fold change vs veh, SNHG1 /// SNORD22 /// SNORD25 /// SNORD26 /// SNORD27 /// SNORD28 /// SNORD29 /// SNORD31 / Fold change (Aza/veh), C12orf56 (ProbeSet 11735607_a_at) / Fold change (ACY-1035/veh), C12orf56 (ProbeSet 11735607_a_at) / Fold change (Aza/veh), FGFR1OP (ProbeSet 11751329_s_at) / Fold change (ACY-1035/veh), FGFR1OP (ProbeSet 11751329_s_at) / Fold change (Aza/veh), VPS36 (ProbeSet 11739960_a_at) / Fold change (ACY-1035/veh), VPS36 (ProbeSet 11739960_a_at) / RFU SYPL1 (11715823_x_at) / Fold change /veh SYPL1 (11715823_x_at) / RFU IGFBP7 (11715501_s_at) / Fold change /veh IGFBP7 (11715501_s_at) / RFU REEP3 (11722064_at) / Fold change /veh REEP3 (11722064_at) / RFU IGLL1 (11728026_x_at) / Fold change /veh IGLL1 (11728026_x_at): dose or concentration left out as unconfirmed. The note with it: ProbeSet 11727958_a_at; LIST B.

Structures are written as SMILES.

Consider one molecule from publication PMC5218480 (PLoS ONE, 2017).

On to `Nc1ncn([C@@H]2O[C@H](CO)[C@@H](O)[C@H]2O)c(=O)n1` [azacitidine], for which the “Fold change vs veh, ING1” value was determined as 0.99.
